Laboratory results published in ChEMBL document CHEMBL1201862, “PubChem BioAssay data set” (2004).
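Five concentrations, 48 hours, 96-well plates. GI50 marks 50% less growth.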 Calls of active or inactive are those of the source. Rule as the data show it: active = GI50 up to about 1.1 µM and inactive = higher.

Key:
Assay in all cases: inhibition of tumour cell growth, NCI panel, 48 h
786-0 = system: 786-0
A498 = system: A498
A549 = system: A549
ACHN = system: ACHN
BT-549 = system: BT-549
CAKI-1 = system: CAKI-1
CCRF-CEM = system: CCRF-CEM
COLO 205 = system: COLO 205
DU-145 = system: DU-145
EKVX = system: EKVX
HCC 2998 = system: HCC 2998
HCT-116 = system: HCT-116
HCT-15 = system: HCT-15
HL-60 = system: HL-60
HOP-62 = system: HOP-62
HOP-92 = system: HOP-92
HT-29 = system: HT-29
Hs-578T = system: Hs-578T
IGROV-1 = system: IGROV-1
K562 = system: K562
KM12 = system: KM12
LOX IMVI = system: LOX IMVI
M14 = system: M14
MCF7 = system: MCF7
MDA-MB-231 = system: MDA-MB-231
MDA-MB-435 = system: MDA-MB-435
MDA-N = system: MDA-N
Malme-3M = system: Malme-3M
NCI-H23 = system: NCI-H23
NCI-H460 = system: NCI-H460
NCI-H522 = system: NCI-H522
NCI/ADR-RES = system: NCI/ADR-RES
OVCAR-3 = system: OVCAR-3
OVCAR-4 = system: OVCAR-4
OVCAR-5 = system: OVCAR-5
OVCAR-8 = system: OVCAR-8
PC-3 = system: PC-3
RPMI-8226 = system: RPMI-8226
SF-268 = system: SF-268
SF-539 = system: SF-539
SK-MEL-28 = system: SK-MEL-28
SK-MEL-2 = system: SK-MEL-2
SK-MEL-5 = system: SK-MEL-5
SN12C = system: SN12C
SNB-19 = system: SNB-19
SNB-75 = system: SNB-75
SR = system: SR
SW-620 = system: SW-620
T47D = system: T47D
TK-10 = system: TK-10
U-251 = system: U-251
UACC-257 = system: UACC-257
UACC-62 = system: UACC-62
UO-31 = system: UO-31
MOLT-4 = system: MOLT-4
NCI-H226 = system: NCI-H226
SF-295 = system: SF-295
SK-OV-3 = system: SK-OV-3
RXF 393 = system: RXF 393

Measured: GI50

O=C(C=P(c1ccccc1)(c1ccccc1)c1ccccc1)C12CC3CC(CC(C3)C1)C2
active: K562 < 0.01 µM
inactive: 786-0 17.3 µM | A498 18.8 µM | A549 16.7 µM | ACHN 16.2 µM | BT-549 18.2 µM | CAKI-1 16.1 µM | CCRF-CEM 14.4 µM | COLO 205 11.9 µM | DU-145 19.1 µM | EKVX 15.6 µM | HCC 2998 16.8 µM | HCT-116 13.2 µM | HL-60 8.75 µM | HOP-62 17.2 µM | HOP-92 20.5 µM | HT-29 11.2 µM | Hs-578T 16.5 µM | IGROV-1 16 µM | KM12 15 µM | LOX IMVI 16.4 µM | M14 16 µM | MCF7 17 µM | MDA-MB-231 15.7 µM | MDA-MB-435 12.9 µM | MDA-N 14.3 µM | Malme-3M 19.2 µM | NCI-H23 16.7 µM | NCI-H460 16.4 µM | NCI-H522 6.55 µM | NCI/ADR-RES 16.5 µM | OVCAR-3 14.9 µM | OVCAR-4 18.7 µM | OVCAR-5 17.1 µM | OVCAR-8 17.7 µM | PC-3 11.7 µM | RPMI-8226 4.06 µM | SF-268 20.8 µM | SF-539 20 µM | SK-MEL-28 16.8 µM | SK-MEL-2 15.8 µM | SK-MEL-5 14.8 µM | SN12C 15.9 µM | SNB-19 12.6 µM | SNB-75 16.9 µM | SR 55 µM | SW-620 16.1 µM | T47D 16.1 µM | TK-10 11.8 µM | U-251 17.7 µM | UACC-257 17.2 µM | UACC-62 14.7 µM | UO-31 14.6 µM
13.4 µM: HCT-15

CS(=O)(=O)OCC1OC(n2ccc(NC(=O)c3ccccc3)nc2=O)CC1OS(C)(=O)=O (configuration not stated)
inactive: 786-0 > 100 µM | A498 > 100 µM | A549 > 100 µM | ACHN > 100 µM | BT-549 > 100 µM | CAKI-1 > 100 µM | CCRF-CEM > 100 µM | COLO 205 > 100 µM | DU-145 > 100 µM | EKVX > 100 µM | HCT-116 > 100 µM | HL-60 > 100 µM | HOP-62 > 100 µM | HT-29 > 100 µM | Hs-578T > 100 µM | IGROV-1 > 100 µM | K562 > 100 µM | KM12 > 100 µM | LOX IMVI > 100 µM | M14 > 100 µM | MCF7 > 100 µM | MDA-MB-231 > 100 µM | MDA-MB-435 > 100 µM | MDA-N > 100 µM | MOLT-4 > 100 µM | NCI-H226 > 100 µM | NCI-H23 > 100 µM | NCI-H460 > 100 µM | NCI-H522 > 100 µM | NCI/ADR-RES > 100 µM | OVCAR-3 > 100 µM | OVCAR-4 > 100 µM | OVCAR-5 > 100 µM | OVCAR-8 > 100 µM | PC-3 > 100 µM | RPMI-8226 > 100 µM | SF-268 > 100 µM | SF-295 > 100 µM | SF-539 > 100 µM | SK-MEL-28 > 100 µM | SK-MEL-2 > 100 µM | SK-MEL-5 > 100 µM | SK-OV-3 > 100 µM | SN12C > 100 µM | SNB-19 > 100 µM | SNB-75 > 100 µM | SR > 100 µM | SW-620 > 100 µM | T47D > 100 µM | TK-10 > 100 µM | U-251 > 100 µM | UACC-257 > 100 µM | UACC-62 > 100 µM | UO-31 > 10 µM
> 100 µM: HCT-15

C=CCN1C[C@H](C)N([C@H](c2ccc(C(=O)N(CC)CCO)cc2)c2cccc(OC)c2)C[C@H]1C
> 100 µM: HCT-15
inactive: 786-0 > 100 µM | A498 76.6 µM | A549 > 100 µM | ACHN > 100 µM | BT-549 > 100 µM | CAKI-1 > 100 µM | COLO 205 43.5 µM | DU-145 > 100 µM | EKVX > 100 µM | HCT-116 > 100 µM | HL-60 > 100 µM | HOP-62 > 100 µM | HOP-92 13.6 µM | HT-29 47.6 µM | Hs-578T > 100 µM | IGROV-1 > 100 µM | KM12 > 100 µM | M14 > 100 µM | MCF7 92.9 µM | MDA-MB-231 > 100 µM | MDA-MB-435 > 100 µM | MDA-N > 100 µM | MOLT-4 51.5 µM | Malme-3M > 100 µM | NCI-H226 50.1 µM | NCI-H23 > 100 µM | NCI-H522 > 100 µM | NCI/ADR-RES > 100 µM | OVCAR-3 12.3 µM | OVCAR-4 > 100 µM | OVCAR-5 > 100 µM | OVCAR-8 > 100 µM | PC-3 38.6 µM | RPMI-8226 40 µM | SF-268 > 100 µM | SF-295 > 100 µM | SF-539 > 100 µM | SK-MEL-28 > 100 µM | SK-MEL-2 > 100 µM | SK-MEL-5 54.7 µM | SK-OV-3 71.8 µM | SN12C > 100 µM | SNB-19 > 100 µM | SR 51.3 µM | SW-620 > 100 µM | T47D 38.5 µM | TK-10 > 100 µM | U-251 56 µM | UACC-257 47 µM | UACC-62 > 100 µM | UO-31 > 100 µM

O=C1c2ccccc2-c2c1c1ccccc1c(=O)n2Cc1ccco1
inactive: 786-0 > 100 µM | A498 > 100 µM | A549 > 100 µM | BT-549 > 100 µM | CAKI-1 > 100 µM | CCRF-CEM > 100 µM | COLO 205 > 100 µM | DU-145 > 100 µM | EKVX > 100 µM | HCT-116 > 100 µM | HL-60 > 100 µM | HOP-62 47.1 µM | HOP-92 > 100 µM | HT-29 > 100 µM | Hs-578T 54.6 µM | IGROV-1 > 100 µM | K562 > 100 µM | KM12 > 100 µM | LOX IMVI > 100 µM | M14 > 100 µM | MCF7 > 100 µM | MDA-MB-231 > 100 µM | MDA-MB-435 > 100 µM | MDA-N > 100 µM | MOLT-4 > 100 µM | Malme-3M > 100 µM | NCI-H226 > 100 µM | NCI-H23 > 100 µM | NCI-H522 > 100 µM | NCI/ADR-RES > 100 µM | OVCAR-3 > 100 µM | OVCAR-5 > 100 µM | OVCAR-8 > 100 µM | PC-3 > 100 µM | RPMI-8226 > 100 µM | SF-268 > 100 µM | SF-295 > 100 µM | SF-539 39.6 µM | SK-MEL-28 > 100 µM | SK-MEL-2 > 100 µM | SK-MEL-5 > 100 µM | SK-OV-3 > 100 µM | SN12C > 100 µM | SNB-75 48.6 µM | SR > 100 µM | SW-620 > 100 µM | T47D > 100 µM | TK-10 > 100 µM | U-251 > 100 µM | UACC-257 > 100 µM | UACC-62 > 100 µM | UO-31 > 100 µM
> 100 µM: HCT-15

COC1(OC)CCN(Cc2ccccc2)C1=O
inactive: 786-0 5.08 µM | A498 17.5 µM | A549 17.7 µM | ACHN 6.28 µM | BT-549 17.2 µM | CAKI-1 3.89 µM | CCRF-CEM 2.25 µM | COLO 205 4.54 µM | DU-145 15.2 µM | EKVX 16 µM | HCC 2998 18.2 µM | HCT-116 3.68 µM | HL-60 1.69 µM | HOP-62 20.6 µM | HOP-92 11.1 µM | HT-29 5.92 µM | Hs-578T > 100 µM | IGROV-1 13.9 µM | K562 3.27 µM | KM12 17.4 µM | LOX IMVI 5.45 µM | M14 10.4 µM | MCF7 4.39 µM | MDA-MB-231 18.5 µM | MDA-MB-435 15.6 µM | MDA-N 10.7 µM | MOLT-4 2.55 µM | Malme-3M > 100 µM | NCI-H226 18.7 µM | NCI-H23 20 µM | NCI-H460 18.7 µM | NCI-H522 > 100 µM | NCI/ADR-RES 25.3 µM | OVCAR-3 11.4 µM | OVCAR-4 16 µM | OVCAR-5 17.7 µM | OVCAR-8 6.44 µM | PC-3 13.2 µM | RPMI-8226 6.32 µM | RXF 393 12.3 µM | SF-268 > 38.1 µM | SF-295 23.4 µM | SF-539 14 µM | SK-MEL-28 9.62 µM | SK-MEL-2 15.4 µM | SK-MEL-5 15.3 µM | SK-OV-3 96.4 µM | SN12C 10.4 µM | SNB-19 17.8 µM | SNB-75 16.2 µM | SW-620 2.86 µM | T47D 4.45 µM | TK-10 16 µM | U-251 17.3 µM | UACC-257 14.2 µM | UACC-62 10.9 µM | UO-31 10.9 µM
13.4 µM: HCT-15
